Data set [1] relates to Mycobacterium tuberculosis standard strain H37Rv. In words: Microplate Alamar Blue Assay (MABA), minimum inhibitory concentration. It counts as cell-based. The note with it: for MIC: Mycobacterium tuberculosis; for in vitro anti-tuberculosis activity (in words): experimental data in Table 1. For orientation: Alamar Blue is a resazurin reagent that responds to reducing activity.

Where [2] appears, read: H37Rv, 7H9 liquid medium, MABA, lowest drug concentration that prevented the color change (blue to pink), read-out: MIC.

In brackets after ≈: the same amount, converted by molar mass. Several values for one entry are separate records, joined by “and”; a condition that tells them apart may be missing. Equal values may be shown once. Where a name gives a salt, the structure may show the parent alone. Read-outs that look alike come from different tables or passages of the source.

Broadly, the MIC is the smallest concentration in the dilution series that meets the test's criterion for growth inhibition. The melting point is the temperature of the solid-liquid transition.

`CCS(=O)(=O)N(C/C=C(\C)CCC=C(C)C)CCN.Cl` [XHJ-2-39, N-geranyl-N-(2-aminoethyl)ethylsulfonamide hydrochloride] yielded a melting point of 103 to 106 °C. Besides, the MIC in data set [1] (setting [2]) was over 32 µg/mL. For the compound `CCCCCCNCCNC1C2CC3CC(C2)CC1C3` (stereo not drawn) [XHJ-5-5, N-(adamantan-2-yl)-N′-hexyl-ethane-1,2-diamine dihydrochloride], in data set [1] (H37RV), it took 0.982 µg/mL to inhibit growth (MIC). The “in vitro anti-tuberculosis activity (in words)” value in data set [1] is listed as “better activity”. With `CC(C)=CCC/C(C)=C/CN(CCNC1C2CC3CC(C2)CC1C3)C(=O)CCc1c[nH]c2ccccc12` (stereo not drawn) [XHJ-3-27, N-adamantan-2-yl-N′,N′-(3-indolylpropionyl)-(3,7-dimethyl-oct-2,6-dienyl)-ethane-1,2-diamine], the MIC in data set [1] (H37RV) came to 1.96 µg/mL (≈ 3.91 µM). Also, the “in vitro anti-tuberculosis activity (in words)” value in data set [1] is listed as “good activity”. `CC(C)=CCC/C(C)=C/CN(CCN)S(=O)(=O)c1ccc(C)cc1.Cl` [XHJ-2-45, N-geranyl-N-(2-aminoethyl)-p-toluenesulfonamide hydrochloride] came in with a melting point of 134 to 137 °C. In addition, in data set [1] (setting [2]), the MIC was determined as 31.5 µg/mL.

For `NNC(=O)c1ccncc1` [INH, isoniazid, reference compound], in data set [1] (setting [2]), the MIC amounted to 0.05 µg/mL (≈ 0.365 µM). Take `CCS(=O)(=O)N(C/C=C(\C)CCC=C(C)C)CCNC1C2CC3CC(C2)CC1C3.Cl` (stereo not drawn) [XHJ-3-1, N-adamantan-2-yl-N′,N′-ethylsulfonyl-(3,7-dimethyl-oct-2,6-dienyl)-ethane-1,2-diamine hydrochloride]: the melting point was 108 to 112 °C and 103 to 106 °C. Also, in data set [1] (H37RV), the MIC stood at 6.96 µg/mL. Also, in data set [1], the “in vitro anti-tuberculosis activity (in words)” value is given as “good activity”. As for `CCCCCCCCNCCNC1C2CC3CC(C2)CC1C3` (stereo not drawn) (as salt: hydrochloride) [XHJ-5-3, N-(adamantan-2-yl)-N′-octyl-ethane-1,2-diamine dihydrochloride], the melting point fell in the range of 224 to 226 °C. For the compound `CC(C)=CCC/C(C)=C/CN(CCNC1C2CC3CC(C2)CC1C3)S(=O)(=O)c1ccc(C)cc1.Cl` (stereo not drawn) [XHJ-3-3, N-adamantan-2-yl-N′,N′-p-toluenesulfonyl-(3,7-dimethyl-oct-2,6-dienyl)-ethane-1,2-diamine hydrochloride], the melting point was in the range of 179 to 182 °C. The compound further registered an MIC in data set [1] (H37RV) of 3.76 µg/mL. Moreover, in data set [1], the “in vitro anti-tuberculosis activity (in words)” value is given as “good activity”. As for `CC(C)=CCC/C(C)=C/CNCCNC(c1ccccn1)c1ccccn1` [XHJ-5-14, N-(dipyridin-2-yl-methyl)-N′-(3,7-dimethyl-oct-2,6-dienyl)-ethane-1,2-diamine], the MIC in data set [1] (H37RV) came to 4 µg/mL (≈ 11 µM). For the same compound, in data set [1], the “in vitro anti-tuberculosis activity (in words)” value was “better activity”.

`CO[C@H]1/C=C/O[C@@]2(C)Oc3c(C)c(O)c4c(O)c(c(/C=N/N5CCN(C)CC5)c(O)c4c3C2=O)NC(=O)/C(C)=C\C=C\[C@H](C)[C@H](O)[C@@H](C)[C@@H](O)[C@@H](C)[C@H](OC(C)=O)[C@@H]1C` [RFP, rifampin, reference compound]: the MIC in data set [1] (setting [2]) was found to be 0.048 µg/mL (≈ 0.0583 µM). Consider `CC(C)=CCC/C(C)=C/CN(CCNC1C2CC3CC(C2)CC1C3)C(=O)/C=C(\C)CCC=C(C)C` (stereo not drawn) [XHJ-3-11, N-adamantan-2-yl-N′,N′-(3,7-dimethyl-oct-2,6-dienyl)-(3,7-dimethyl-oct-2,6-dienoyl)-ethane-1,2-diamine], for which the MIC in data set [1] (H37RV) was over 32 µg/mL. For `CCS(=O)(=O)NCCNC1C2CC3CC(C2)CC1C3` (stereo not drawn) [XHJ-3-46, N-(adamantan-2-yl)-N′-ethylsulfonyl-ethane-1,2-diamine], in data set [1] (setting [2]), the MIC is over 32 µg/mL. `CC(C)=CCC/C(C)=C/CNCCNC(c1ccccc1)c1cccnc1` (stereo not drawn) [XHJ-5-8, N-(phenyl-pyridin-3-yl-methyl)-N′-(3,7-dimethyl-oct-2,6-dienyl)-ethane-1,2-diamine] gave an MIC in data set [1] (H37RV) of 16 µg/mL (≈ 44 µM). Further, in data set [1], the “in vitro anti-tuberculosis activity (in words)” value is listed as “better activity”. As to `CC(C)=CCC/C(C)=C/CN(CCN(C(=O)c1c[nH]c2ccccc12)C1C2CC3CC(C2)CC1C3)C(=O)c1c[nH]c2ccccc12` (stereo not drawn) [XHJ-3-15, N,N-adamantan-2-yl-(3-indolylformyl)-N′,N′-(3,7-dimethyl-oct-2,6-dienyl)-(3-indolylformyl)-ethane-1,2-diamine], the melting point was in the range of 248 to 252 °C. In addition, in data set [1] (H37RV), the MIC was over 32 µg/mL. The compound `CC(C)=CCC/C(C)=C/CN(CCN)C1C2CC3CC(C2)CC1C3` (stereo not drawn) [XHJ-3-45, N,N-(adamantan-2-yl)-(3,7-dimethyl-oct-2,6-dienyl)-ethane-1,2-diamine] came in with a melting point of 102 to 104 °C. For the same compound, in data set [1] (H37RV), the MIC is under 0.5 µg/mL. Besides, the “in vitro anti-tuberculosis activity (in words)” value in data set [1] is “better activity”. In data set [1] (H37RV), `CCCCCCCCN(C/C=C(\C)CCC=C(C)C)CCN(CCCCCCCC)C1C2CC3CC(C2)CC1C3` (stereo not drawn) [XHJ-4-15, N,N-(adamantan-2-yl)-octyl-N′,N′-(3,7-dimethyl-oct-2,6-dienyl)-octyl-ethane-1,2-diamine] yielded an MIC of over 32 µg/mL.

Regarding `CCCCCCCCCCC(=O)N(C/C=C(\C)CCC=C(C)C)CCNC1C2CC3CC(C2)CC1C3` (stereo not drawn) [XHJ-3-31, N-adamantan-2-yl-N′,N′-undecanoyl-(3,7-dimethyl-oct-2,6-dienyl)-ethane-1,2-diamine], 2.84 µg/mL (≈ 5.7 µM) was the least that counted as inhibitory in data set [1] (H37RV) (MIC). Further, the “in vitro anti-tuberculosis activity (in words)” value in data set [1] was “good activity”. The compound `C(CNC1C2CC3CC(C2)CC1C3)NC1CC1` (stereo not drawn) [XHJ-5-18, N-(adamantan-2-yl)-N′-cyclopropyl-ethane-1,2-diamine] had a melting point of 197 to 200 °C. In data set [1] (setting [2]), the MIC is over 32 µg/mL. As for `CCCCCCNCCNC1C2CC3CC(C2)CC1C3` (stereo not drawn) (as salt: hydrochloride) [XHJ-5-5, N-(adamantan-2-yl)-N′-hexyl-ethane-1,2-diamine dihydrochloride], the melting point is 212 to 216 °C. In data set [1] (H37RV), `CCCCCCCCNCCNC1C2CC3CC(C2)CC1C3` (stereo not drawn) [XHJ-5-3, N-(adamantan-2-yl)-N′-octyl-ethane-1,2-diamine dihydrochloride] came in with an MIC of 0.986 µg/mL. Also, in data set [1], the “in vitro anti-tuberculosis activity (in words)” value is listed as “better activity”. Take `CC(C)=CCC/C(C)=C/CN(CCN(Cc1ccccc1)C1C2CC3CC(C2)CC1C3)Cc1ccccc1` (stereo not drawn) [XHJ-4-11, N,N-(adamantan-2-yl)-benzyl-N′,N′-(3,7-dimethyl-oct-2,6-dienyl)-benzyl-ethane-1,2-diamine]: in data set [1] (H37RV), the lowest concentration to inhibit growth (MIC) was 30.8 µg/mL (≈ 60.3 µM).

`COc1cc(C(=O)N(C/C=C(\C)CCC=C(C)C)CCNC2C3CC4CC(C3)CC2C4)cc(OC)c1OC` (stereo not drawn) [XHJ-3-29, N-adamantan-2-yl-N′,N′-(3,4,5-trimethoxybenzoyl)-(3,7-dimethyl-oct-2,6-dienyl)-ethane-1,2-diamine]: the MIC in data set [1] (H37RV) was determined as 3.91 µg/mL (≈ 7.45 µM). In addition, the “in vitro anti-tuberculosis activity (in words)” value in data set [1] was “good activity”.

Compound `CC(C)=CCC/C(C)=C/C(=O)NCCNC1C2CC3CC(C2)CC1C3.Cl` (stereo not drawn) [XHJ-2-32, 3,7-dimethyl-oct-2,6-dienoic acid [2-(adamantan-2-yl-amino)ethyl]amide hydrochloride] gave a melting point of 150 to 164 °C. Moreover, in data set [1] (H37RV), 7.75 µg/mL was the least that counted as inhibitory (MIC). For the same compound, in data set [1], the “in vitro anti-tuberculosis activity (in words)” value is recorded as “good activity”.

Compound `CC(C)=CCC/C(C)=C/CNCC(=O)NC1C2CC3CC(C2)CC1C3.Cl` (stereo not drawn) [XHJ-2-37, N-adamantan-2-yl-2-(3,7-dimethyl-oct-2,6-dienylamino)-acetamide hydrochloride] displayed a melting point of 168 to 172 °C. Besides, in data set [1] (H37RV), the MIC was under 0.5 µg/mL. In addition, the “in vitro anti-tuberculosis activity (in words)” value in data set [1] was “good activity”.

Values taken from patent publication US20220089521A1, “ETHYLENEDIAMINE COMPOUND AND USE THEREOF” (priority 2018, published 2022).
